Measurements published in DBAASP.
Converted amounts (≈) assume the structure as drawn. Values belong to the molecule of their own block, whether it stands above or below them.

Tests used:
Experiment in all cases: ≥ marks a high value that may be exact or a test limit, other limits are often not marked, values filed in µg/mL are converted to µM
Escherichia coli BL21AI = system: Escherichia coli BL21AI
[1] = system: Micrococcus luteus ATCC 10240
[2] = system: Burkholderia cepacia J2540
[3] = system: Pseudomonas aeruginosa ATCC 27853
[4] = system: Escherichia coli ATCC 25922
[5] = system: Xanthomonas axonopodis pv. glycines ISBF 327
[6] = system: Streptococcus pneumoniae BCRC 10794
[7] = system: Staphylococcus aureus BCRC 10780
[8] = system: Salmonella enterica subsp. enterica serovar Typhi DMST 22842
[9] = system: Staphylococcus aureus ATCC 25923
[10] = system: Staphylococcus epidermidis ATCC 12228
Escherichia coli MG1655 = system: Escherichia coli MG1655
[11] = system: Staphylococcus aureus MTCC 9542
Vibrio cholerae = system: Vibrio cholerae
[12] = system: Listeria monocytogenes LO28
[13] = system: Cronobacter sakazakii DPC 6440

SMILES: CC[C@H](C)[C@H](NC(=O)CNC(=O)[C@H](CCCN=C(N)N)NC(=O)[C@H](CC(C)C)NC(=O)[C@H](Cc1ccccc1)NC(=O)[C@H](CC(=O)O)NC(=O)[C@H](CCCCN)NC(=O)[C@@H](NC(=O)[C@H](CCCN=C(N)N)NC(=O)[C@H](CCC(N)=O)NC(=O)[C@@H](NC(=O)[C@@H](NC(=O)[C@H](CCCN=C(N)N)NC(=O)[C@H](CCCCN)NC(=O)[C@@H](N)Cc1ccccc1)[C@@H](C)CC)C(C)C)[C@@H](C)CC)C(=O)NCC(=O)N[C@@H](CCCCN)C(=O)N[C@@H](Cc1ccccc1)C(=O)N[C@@H](CC(C)C)C(=O)N[C@@H](Cc1cnc[nH]1)C(=O)N[C@@H](CO)C(=O)N[C@@H](C)C(=O)N[C@@H](CCCCN)C(=O)N[C@@H](CCCCN)C(=O)N[C@@H](Cc1ccccc1)C(=O)O [FKRIVQRIKDFLRGIGKFLHSAKKF]
MIC [2]: 10.3 µM (≈ 31.3 µg/mL)

SMILES: CC[C@H](C)[C@H](NC(=O)[C@H](CCCN=C(N)N)NC(=O)[C@H](CCCCN)NC(=O)[C@H](CC(C)C)NC(=O)[C@H](CO)NC(=O)[C@@H](NC(=O)[C@@H](NC(=O)[C@H](CCCCN)NC(=O)[C@@H](NC(=O)CNC(=O)[C@@H](NC(=O)[C@H](CO)NC(=O)[C@H](CC(C)C)NC(=O)[C@H](Cc1ccccc1)NC(=O)[C@H](CCSC)NC(=O)[C@H](CCCCN)NC(=O)[C@H](CCCCN)NC(=O)[C@@H](NC(=O)[C@H](CCC(N)=O)NC(=O)[C@H](Cc1cnc[nH]1)NC(=O)[C@H](Cc1ccccc1)NC(=O)[C@H](CCCCN)NC(=O)CN)[C@@H](C)CC)C(C)C)C(C)C)C(C)C)[C@@H](C)O)C(=O)N[C@@H](CCC(N)=O)C(=O)N[C@@H](Cc1ccccc1)C(=O)NCC(=O)N[C@@H](CC(=O)O)C(=O)N[C@@H](Cc1ccccc1)C(N)=O [GKFHQIKKMFLSVGVKVTSLKRIQFGDF]
MIC [3]: 20 µM (≈ 64.8 µg/mL)
MIC [4]: 20 µM (≈ 64.8 µg/mL)
MIC [5]: 10 µM (≈ 32.4 µg/mL)

SMILES: CC[C@H](C)[C@H](NC(=O)[C@H](CCSC)NC(=O)[C@H](CCCCN)NC(=O)CNC(=O)[C@H](C)NC(=O)[C@H](Cc1cnc[nH]1)NC(=O)[C@H](Cc1ccccc1)NC(=O)[C@H](CC(C)C)NC(=O)CNC(=O)[C@H](CCCCN)NC(C)=O)C(=O)N[C@@H](Cc1cnc[nH]1)C(N)=O [KGLFHAGKMIH]
MIC [6]: ≥ 80.7 µM
MIC [7]: ≥ 80.7 µM

SMILES: CC[C@H](C)[C@@H]1NC(=O)[C@H](CCCCN)NC(=O)[C@@H](NC(=O)[C@H](CC(C)C)NC(=O)[C@@H](NC(=O)[C@H](CCC(N)=O)NC(=O)[C@@H]2CCCN2C(=O)[C@H](CC(C)C)NC(=O)[C@H](Cc2ccccc2)NC(=O)[C@H](CC(N)=O)NC(=O)[C@H](C)NC(=O)[C@H](C)NC(=O)[C@H](CC(C)C)NC(=O)CNC(=O)[C@H](C)N)[C@@H](C)CC)CSSC[C@@H](C(N)=O)NC(=O)[C@H](CCCCN)NC(=O)[C@H](CCCN=C(N)N)NC(=O)[C@H](C)NC1=O [AGLAANFLPQILCKIARKC]
MIC (Escherichia coli MG1655): 24.6 µM (≈ 49.9 µg/mL)
MIC [3]: > 49.2 µM
MIC [11]: 24.6 µM (≈ 49.9 µg/mL)
MIC (Vibrio cholerae): 12.3 µM (≈ 25 µg/mL)

SMILES: CC[C@H](C)[C@H](NC(=O)[C@H](Cc1c[nH]c2ccccc12)NC(=O)[C@@H]1CCCN1C(=O)[C@H](CCCCN)NC(=O)[C@H](CCSC)NC(=O)[C@H](C)NC(=O)[C@@H](N)CCCCN)C(=O)N[C@@H](CCC(N)=O)C(=O)N1CCC[C@H]1C(=O)N[C@@H](CCCCN)C(=O)N[C@H](C(=O)N[C@@H](CCCCN)C(=O)N[C@H](C(=O)N[C@H](C(=O)N1CCC[C@H]1C(=O)N[C@@H](Cc1ccc(O)cc1)C(=O)N[C@H](C(=O)N[C@@H](CCCN=C(N)N)C(=O)N[C@@H](Cc1ccc(O)cc1)C(=O)N[C@@H](CC(C)C)C(=O)O)C(C)C)[C@@H](C)CC)C(C)C)[C@@H](C)O [KAMKPWIQPKTKVIPYVRYL]
MIC [12]: ≥ 39.1 µM
MIC [13]: ≥ 39.1 µM

SMILES: CSCC[C@H](NC(=O)[C@H](C)NC(=O)CNC(=O)[C@H](C)NC(=O)[C@H](Cc1cnc[nH]1)NC(=O)[C@H](Cc1ccccc1)NC(C)=O)C(N)=O [FHAGAM]
MIC [6]: ≥ 158 µM
MIC [7]: ≥ 158 µM

The remaining lines, values ahead:

MIC (Escherichia coli BL21AI): 25.7 µM (≈ 64 µg/mL)
MIC [1]: 12.9 µM (≈ 32 µg/mL)
SMILES: CC[C@H](C)[C@H](NC(=O)[C@H](CCCN=C(N)N)NC(=O)[C@H](CCCN=C(N)N)NC(=O)[C@@H]1CCCN1C(=O)[C@@H]1CCCN1C(=O)[C@H](Cc1cnc[nH]1)NC(=O)[C@@H]1CCCN1C(=O)[C@H](CCCN=C(N)N)NC(=O)[C@@H]1CCCN1C(=O)[C@H](CC(C)C)NC(=O)[C@H](Cc1ccc(O)cc1)NC(=O)[C@@H]1CCCN1C(=O)[C@@H]1CCCN1C(=O)[C@H](CCCCN)NC(=O)[C@H](CC(=O)O)NC(=O)[C@@H](N)C(C)C)C(=O)N[C@@H](Cc1ccc(O)cc1)C(=O)N[C@@H](CC(N)=O)C(=O)N[C@@H](CC(N)=O)C(=O)N[C@@H](CCCN=C(N)N)C(=O)O [VDKPPYLPRPHPPRRIYNNR]

MIC [8]: 8.78 µM (≈ 23 µg/mL)
MIC [9]: > 34.7 µM
MIC [10]: 8.78 µM (≈ 23 µg/mL)
MIC [4]: 4.2 µM (≈ 11 µg/mL)
SMILES: CC(C)[C@H](NC(=O)CNC(=O)[C@@H](N)CC(N)=O)C(=O)N[C@@H](CCC(N)=O)C(=O)N1CCC[C@H]1C(=O)N[C@@H](CCCCN)C(=O)N[C@@H](Cc1ccc(O)cc1)C(=O)N[C@@H](CCCCN)C(=O)N[C@@H](Cc1c[nH]c2ccccc12)C(=O)N[C@@H](Cc1c[nH]c2ccccc12)C(=O)N[C@@H](CCCCN)C(=O)N[C@@H](Cc1c[nH]c2ccccc12)C(=O)N[C@@H](Cc1c[nH]c2ccccc12)C(=O)N[C@@H](CCCCN)C(=O)N[C@@H](CCCCN)C(=O)N[C@@H](Cc1c[nH]c2ccccc12)C(=O)N[C@@H](Cc1c[nH]c2ccccc12)C(=O)N[C@@H](Cc1c[nH]c2ccccc12)C(N)=O [NGVQPKYKWWKWWKKWWW]

MIC [8]: ≥ 33.3 µM
MIC [9]: > 33.3 µM
MIC [10]: 33.3 µM (≈ 91 µg/mL)
MIC [4]: > 33.3 µM
SMILES: CC(C)[C@H](NC(=O)CNC(=O)[C@@H](N)CC(N)=O)C(=O)N[C@@H](CCC(N)=O)C(=O)N1CCC[C@H]1C(=O)N[C@@H](CCCCN)C(=O)N[C@@H](Cc1ccc(O)cc1)C(=O)N[C@@H](CCCN=C(N)N)C(=O)N[C@@H](Cc1c[nH]c2ccccc12)C(=O)N[C@@H](Cc1c[nH]c2ccccc12)C(=O)N[C@@H](CCCN=C(N)N)C(=O)N[C@@H](Cc1c[nH]c2ccccc12)C(=O)N[C@@H](Cc1c[nH]c2ccccc12)C(=O)N[C@@H](CCCN=C(N)N)C(=O)N[C@@H](CCCN=C(N)N)C(=O)N[C@@H](Cc1c[nH]c2ccccc12)C(=O)N[C@@H](Cc1c[nH]c2ccccc12)C(=O)N[C@@H](Cc1c[nH]c2ccccc12)C(=O)O [NGVQPKYRWWRWWRRWWW]

MIC [12]: ≥ 78.1 µM
MIC [13]: ≥ 312 µM
SMILES: CC[C@H](C)[C@H](NC(=O)[C@H](Cc1c[nH]c2ccccc12)NC(=O)[C@@H]1CCCN1C(=O)[C@H](CCCCN)NC(=O)[C@H](CCSC)NC(=O)[C@H](C)NC(=O)[C@H](CCCCN)NC(=O)[C@H](CCC(N)=O)NC(=O)[C@H](Cc1cnc[nH]1)NC(=O)[C@H](CCC(N)=O)NC(=O)[C@H](Cc1ccc(O)cc1)NC(=O)[C@@H](N)C(C)C)C(=O)N[C@@H](CCC(N)=O)C(=O)N1CCC[C@H]1C(=O)N[C@@H](CCCCN)C(=O)N[C@H](C(=O)N[C@@H](CCCCN)C(=O)N[C@H](C(=O)N[C@H](C(=O)N1CCC[C@H]1C(=O)N[C@@H](Cc1ccc(O)cc1)C(=O)N[C@H](C(=O)N[C@@H](CCCN=C(N)N)C(=O)N[C@@H](Cc1ccc(O)cc1)C(=O)N[C@@H](CC(C)C)C(=O)O)C(C)C)[C@@H](C)CC)C(C)C)[C@@H](C)O [VYQHQKAMKPWIQPKTKVIPYVRYL]
